In ChEMBL document CHEMBL1158248, “Pessoine and spinosine, two catecholic berbines from Annona spinescens” (1996):

Tests used:
Assay type in all cases: functional
[1] = system: Trypanosoma cruzi; assay: Trypanocidal activity against Trypanosoma cruzi trypomastigote assessed as lysis of trypomastigotes at 250 ug/mL after 24 hrs relative to control
[2] = system: Leishmania braziliensis; assay: Antileishmanial against Leishmania brasiliensis 2903 promastigote assessed as total lysis of parasites after 48 hrs
[3] = system: Leishmania amazonensis; assay: Antileishmanial against Leishmania amazonensis promastigote LV 79 assessed as total lysis of parasites after 48 hrs
[4] = system: Leishmania amazonensis; assay: Antileishmanial against Leishmania amazonensis promastigote LV 79 assessed as lysis of parasites at 10 ug/mL after 48 hrs
[5] = system: Leishmania donovani; assay: Antileishmanial against Leishmania donovani promastigote PP-75 assessed as total lysis of parasites after 48 hrs
[6] = system: Leishmania donovani; assay: Antileishmanial against Leishmania donovani promastigote PP-75 assessed as lysis of parasites at 10 ug/mL after 48 hrs
[7] = system: Leishmania braziliensis; assay: Antileishmanial against Leishmania brasiliensis 2903 promastigote assessed as lysis of parasites at 100 ug/mL after 48 hrs
[8] = system: Leishmania amazonensis; assay: Antileishmanial against Leishmania amazonensis promastigote LV 79 assessed as lysis of parasites at 50 ug/mL after 48 hrs
[9] = system: Leishmania donovani; assay: Antileishmanial against Leishmania donovani promastigote PP-75 assessed as lysis of parasites at 25 ug/mL after 48 hrs

Compound | Activity [1] [%] | Activity [3] [µg/mL] | Activity [5] [µg/mL] | further results
COc1cc2c(cc1O)[C@@H]1Cc3cc(O)c(O)cc3CN1CC2 | 55 |  |  | 
COc1cc2c3c(c1O)-c1cc4c(cc1CC3N(C(C)=O)CC2)OCO4 (stereo unspecified) [ACETYLNORDOMESTICINE] | 60 |  |  | 
c1ccc2c(c1)C[C@H]1NCCc3cc4c(c-2c31)OCO4 [ANONAINE] | 99 | 25 | 100 | Activity [2]: 50 µg/mL; Activity [4]: 90%; Activity [6]: 90%
CN(C)c1ccc(C(=C2C=CC(=[N+](C)C)C=C2)c2ccc(N(C)C)cc2)cc1.[Cl-] [GENTIAN VIOLET] | 100 |  |  | 
O=C1c2ccccc2-c2c3c(cc4ccnc1c24)OCO3 [LIRIODENINE] | 50 | 100 | 100 | Activity [7]: 90%; Activity [8]: 90%; Activity [9]: 90%
COC(=O)/C=C/c1cc(OC)c(O)c(OC)c1 [METHYL SINAPATE] | 44 |  |  | 
COc1cc2c(cc1O)-c1c(O)c(OC)cc3c1[C@H](C2)NCC3 [NORBRACTEOLINE] | 62 |  |  | 
COc1cc2c3c(c1OC)C1(C=CC(=O)C=C1)C[C@@H]3NCC2 [STEPHARINE] | 65 |  |  | 
MEGLUMINE ANTIMONATE |  | > 100 | > 100 | Activity [2]: > 100 µg/mL
